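Method: 48-hour compound exposure of cells in 96-well plates, five concentrations, linear interpolation of endpoints. The concentration for 50% growth inhibition is given as GI50.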 Active and inactive are the calls of the source. Rule as the data show it: active = GI50 up to about 1.1 µM and inactive = higher.
What was measured:
Test in all cases: NCI tumour cell line growth inhibition, 48 h
[1] = tested on: HCT-116
[2] = tested on: SK-MEL-2
[3] = tested on: A498
[4] = tested on: COLO 205
[5] = tested on: NCI-H23
[6] = tested on: LOX IMVI
[7] = tested on: HL-60
[8] = tested on: MOLT-4
[9] = tested on: A549
[10] = tested on: OVCAR-8
[11] = tested on: Malme-3M
[12] = tested on: HOP-62
[13] = tested on: SF-539
[14] = tested on: U-251
[15] = tested on: K562
[16] = tested on: 786-0
[17] = tested on: SNB-19

SMILES	GI50 [1]	GI50 [2]	GI50 [3]	GI50 [4]	GI50 [5]	GI50 [6]	GI50 [7]	GI50 [8]	GI50 [9]	GI50 [10]	GI50 [11]	GI50 [12]	GI50 [13]	GI50 [14]	GI50 [15]	GI50 [16]	GI50 [17]
COC(=O)C12C3C4C1C1C2C3C41C(=O)OC(C)(C)C (stereo not given)	26.7 µM (inactive)	> 100 µM (inactive)	> 100 µM (inactive)	> 64 µM (inactive)	> 100 µM (inactive)	> 42.9 µM (inactive)	> 53.8 µM (inactive)	> 100 µM (inactive)	> 64.3 µM (inactive)	> 81.3 µM (inactive)	> 100 µM (inactive)	> 100 µM (inactive)	> 100 µM (inactive)	> 100 µM (inactive)	> 70.1 µM (inactive)	> 100 µM (inactive)	> 100 µM (inactive)
Cc1cc2c(=O)cc(-c3ccc(C(F)(F)F)cc3)oc2c(C(=O)O)c1C	> 100 µM (inactive)	> 100 µM (inactive)		> 100 µM (inactive)	> 100 µM (inactive)	> 100 µM (inactive)		> 100 µM (inactive)	> 100 µM (inactive)	> 100 µM (inactive)	> 100 µM (inactive)		> 100 µM (inactive)	> 100 µM (inactive)	> 100 µM (inactive)	> 100 µM (inactive)	> 100 µM (inactive)
Cc1ccccc1C(C#N)/C(=N/NC(N)=S)C(=O)Nc1c(C)cccc1C (stereo not given)	> 100 µM (inactive)	> 100 µM (inactive)		> 100 µM (inactive)	> 100 µM (inactive)	> 100 µM (inactive)	> 100 µM (inactive)	88.1 µM (inactive)	75.9 µM (inactive)	> 100 µM (inactive)	83.8 µM (inactive)	> 100 µM (inactive)		> 100 µM (inactive)		> 100 µM (inactive)	> 100 µM (inactive)
COC(=O)C(C(=O)C(=O)Nc1cccc(O)c1)c1nc2ccc(Cl)cc2nc1O (stereo not given)	> 100 µM (inactive)	> 100 µM (inactive)	> 100 µM (inactive)	> 100 µM (inactive)	> 100 µM (inactive)	> 100 µM (inactive)	> 100 µM (inactive)	> 100 µM (inactive)	> 100 µM (inactive)	> 100 µM (inactive)	> 100 µM (inactive)	> 100 µM (inactive)	> 100 µM (inactive)	> 100 µM (inactive)	> 100 µM (inactive)	> 100 µM (inactive)	> 100 µM (inactive)
OCC(O)C(OC1OC(CO)C(O)C(O)C1O)c1nn(-c2ccc(Cl)cc2)c2nc3cc(Cl)c(Cl)cc3nc12 (stereo not given)	> 100 µM (inactive)		> 100 µM (inactive)		> 100 µM (inactive)	> 100 µM (inactive)		> 100 µM (inactive)		> 100 µM (inactive)	> 100 µM (inactive)	> 100 µM (inactive)	> 100 µM (inactive)	> 100 µM (inactive)	> 100 µM (inactive)	> 100 µM (inactive)	> 100 µM (inactive)
Cc1nc2ccccc2c(=O)n1NC(=S)Nc1cccc(Cl)c1	> 100 µM (inactive)	> 100 µM (inactive)	> 100 µM (inactive)	> 100 µM (inactive)	> 100 µM (inactive)	65.5 µM (inactive)	> 100 µM (inactive)	> 100 µM (inactive)	> 100 µM (inactive)	> 100 µM (inactive)	> 100 µM (inactive)	> 100 µM (inactive)	> 100 µM (inactive)	> 100 µM (inactive)	> 100 µM (inactive)	> 100 µM (inactive)	
Cc1cccc(C)c1NC(=O)C(=O)Cc1nc2ccccc2s1	> 100 µM (inactive)	> 100 µM (inactive)	> 100 µM (inactive)	> 100 µM (inactive)	> 100 µM (inactive)	> 100 µM (inactive)	> 100 µM (inactive)		> 100 µM (inactive)	> 100 µM (inactive)	> 100 µM (inactive)	> 100 µM (inactive)	> 100 µM (inactive)	> 100 µM (inactive)	> 100 µM (inactive)	> 100 µM (inactive)	> 100 µM (inactive)
C[C@]12CCC(=O)C=C1CC[C@@H]1C2CC[C@@]2(C)C1CC[C@@H]2OC(=O)C12OC1CCC2=O (stereo not given in full)	15.7 µM (inactive)	15.2 µM (inactive)	18 µM (inactive)	17.9 µM (inactive)	18.8 µM (inactive)	16 µM (inactive)	6.9 µM (inactive)	10.1 µM (inactive)	25 µM (inactive)	17.9 µM (inactive)	19.1 µM (inactive)	30.7 µM (inactive)	20.3 µM (inactive)	15.1 µM (inactive)	24.4 µM (inactive)	16.5 µM (inactive)	19.6 µM (inactive)
O=C(Nc1ccc(S(=O)(=O)N[C@@H](C(=O)O)c2ccccc2)cc1)c1ccc(F)cc1		> 100 µM (inactive)	> 100 µM (inactive)	> 100 µM (inactive)	> 100 µM (inactive)	> 100 µM (inactive)		> 100 µM (inactive)	> 100 µM (inactive)	> 100 µM (inactive)	> 100 µM (inactive)		> 100 µM (inactive)	> 100 µM (inactive)	> 100 µM (inactive)	> 100 µM (inactive)	> 100 µM (inactive)
COc1cc([C@@H]2c3cc4c(cc3[C@@H](NC(=O)c3cccc([N+](=O)[O-])c3)C3COC(=O)[C@@H]32)OCO4)cc(OC)c1O (stereo not given in full)	1.5 µM (inactive)	2.77 µM (inactive)		4.66 µM (inactive)	0.189 µM (active)	0.295 µM (active)	0.274 µM (active)	0.0145 µM (active)	0.0442 µM (active)	0.721 µM (active)	0.543 µM (active)	0.0398 µM (active)	0.294 µM (active)	0.166 µM (active)	2.2 µM (inactive)	0.202 µM (active)	0.366 µM (active)
COc1ccc(C(=O)C(c2ccc(OC)cc2)C2OC(=O)C(Cl)=C2Cl)cc1 (stereo not given)	> 100 µM (inactive)	> 100 µM (inactive)			> 100 µM (inactive)	> 100 µM (inactive)	> 100 µM (inactive)	> 100 µM (inactive)	> 100 µM (inactive)	84.1 µM (inactive)	> 100 µM (inactive)	> 100 µM (inactive)	> 100 µM (inactive)	> 100 µM (inactive)	> 100 µM (inactive)	> 100 µM (inactive)	> 100 µM (inactive)
Clc1ccc(OCCSCCCCCCCCCCSCCOc2ccc(Cl)cc2)cc1		> 100 µM (inactive)	> 100 µM (inactive)	> 100 µM (inactive)	> 100 µM (inactive)	> 100 µM (inactive)	> 100 µM (inactive)	> 100 µM (inactive)	> 100 µM (inactive)	> 100 µM (inactive)	> 100 µM (inactive)	> 100 µM (inactive)	> 100 µM (inactive)	> 100 µM (inactive)	> 100 µM (inactive)	> 100 µM (inactive)	> 100 µM (inactive)
c1ccc(C2[C@@H]3CCCc4ccccc4C3=NN2c2ccccc2)cc1 (stereo not given in full)	42 µM (inactive)		> 100 µM (inactive)	> 100 µM (inactive)	61 µM (inactive)	40.8 µM (inactive)	80 µM (inactive)	48.6 µM (inactive)	> 100 µM (inactive)	> 100 µM (inactive)	> 100 µM (inactive)	> 100 µM (inactive)		> 100 µM (inactive)	32.7 µM (inactive)	> 100 µM (inactive)	> 100 µM (inactive)

From ChEMBL document CHEMBL1201862, “PubChem BioAssay data set” (2004)
